Columns and labels:
[1] = target: Neuronal acetylcholine receptor; alpha3/beta4 (Homo sapiens, UniProt P30926+P32297); assay: Displacement of [3H]-epibatidine from alpha3beta4 nAChR expressed in human IMR32 cells after 2 hrs by scintillation counting; format: cell-based, IMR-32
[2] = Displacement of [3H]-cytisine from nAChR in rat brain membranes; format: cell membranes
[3] = target: Neuronal acetylcholine receptor subunit alpha-7 (Homo sapiens, UniProt P36544); assay: Displacement of [125I]-alpha-bungarotoxin from alpha7 nAchR expressed in rat GH4C1 cells; format: cell-based, GH4-C1
Chain of Neuronal acetylcholine receptor subunit alpha-7 (P36544 whole entry): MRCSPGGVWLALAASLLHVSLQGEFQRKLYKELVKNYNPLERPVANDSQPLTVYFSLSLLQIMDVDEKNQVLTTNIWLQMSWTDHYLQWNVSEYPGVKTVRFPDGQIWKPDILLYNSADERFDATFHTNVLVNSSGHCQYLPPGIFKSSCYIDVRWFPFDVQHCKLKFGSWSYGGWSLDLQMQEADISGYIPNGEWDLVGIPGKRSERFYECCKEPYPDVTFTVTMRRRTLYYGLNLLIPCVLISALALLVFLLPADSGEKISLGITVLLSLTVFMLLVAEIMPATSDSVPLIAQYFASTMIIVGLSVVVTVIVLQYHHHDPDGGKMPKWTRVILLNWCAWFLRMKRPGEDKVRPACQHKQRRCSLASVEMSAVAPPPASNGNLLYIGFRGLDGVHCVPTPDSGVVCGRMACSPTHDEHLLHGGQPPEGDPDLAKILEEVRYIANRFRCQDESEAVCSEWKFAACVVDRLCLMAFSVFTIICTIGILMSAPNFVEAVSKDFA

[4] = target: Acetylcholine receptor subunit alpha (Homo sapiens, UniProt P02708); assay: Binding affinity to alpha1 nAchR expressed in human TE671 cells; format: cell-based, TE-671
Chain of Acetylcholine receptor subunit alpha (P02708 whole entry): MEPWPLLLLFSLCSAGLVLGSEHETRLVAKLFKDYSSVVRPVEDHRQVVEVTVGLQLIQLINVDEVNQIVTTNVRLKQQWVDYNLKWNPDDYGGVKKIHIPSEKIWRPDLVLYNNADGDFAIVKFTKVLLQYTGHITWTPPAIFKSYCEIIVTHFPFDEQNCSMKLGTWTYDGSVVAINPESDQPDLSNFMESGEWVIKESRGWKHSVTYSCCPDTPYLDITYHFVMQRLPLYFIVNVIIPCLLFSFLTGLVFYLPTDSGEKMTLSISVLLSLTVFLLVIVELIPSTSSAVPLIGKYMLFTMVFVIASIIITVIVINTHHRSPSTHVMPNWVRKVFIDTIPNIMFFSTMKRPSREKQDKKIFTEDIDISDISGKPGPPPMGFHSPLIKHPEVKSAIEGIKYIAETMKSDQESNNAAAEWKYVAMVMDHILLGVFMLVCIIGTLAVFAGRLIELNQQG

Chain of Neuronal acetylcholine receptor; alpha3/beta4 (P30926 whole entry): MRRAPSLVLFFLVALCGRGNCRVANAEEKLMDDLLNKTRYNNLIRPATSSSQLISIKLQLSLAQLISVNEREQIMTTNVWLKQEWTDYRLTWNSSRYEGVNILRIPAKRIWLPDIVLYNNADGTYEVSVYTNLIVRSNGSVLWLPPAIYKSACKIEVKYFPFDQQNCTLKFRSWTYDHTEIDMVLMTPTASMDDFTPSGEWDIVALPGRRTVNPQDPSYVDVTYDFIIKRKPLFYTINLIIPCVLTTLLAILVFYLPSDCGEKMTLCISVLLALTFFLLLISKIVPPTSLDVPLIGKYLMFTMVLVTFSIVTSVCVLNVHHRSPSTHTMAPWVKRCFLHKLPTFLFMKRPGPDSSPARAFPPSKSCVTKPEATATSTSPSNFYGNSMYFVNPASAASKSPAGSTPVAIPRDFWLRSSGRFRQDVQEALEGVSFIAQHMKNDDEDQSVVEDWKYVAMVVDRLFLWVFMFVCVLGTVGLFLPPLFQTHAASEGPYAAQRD
Chain of Neuronal acetylcholine receptor; alpha3/beta4 (P32297 whole entry): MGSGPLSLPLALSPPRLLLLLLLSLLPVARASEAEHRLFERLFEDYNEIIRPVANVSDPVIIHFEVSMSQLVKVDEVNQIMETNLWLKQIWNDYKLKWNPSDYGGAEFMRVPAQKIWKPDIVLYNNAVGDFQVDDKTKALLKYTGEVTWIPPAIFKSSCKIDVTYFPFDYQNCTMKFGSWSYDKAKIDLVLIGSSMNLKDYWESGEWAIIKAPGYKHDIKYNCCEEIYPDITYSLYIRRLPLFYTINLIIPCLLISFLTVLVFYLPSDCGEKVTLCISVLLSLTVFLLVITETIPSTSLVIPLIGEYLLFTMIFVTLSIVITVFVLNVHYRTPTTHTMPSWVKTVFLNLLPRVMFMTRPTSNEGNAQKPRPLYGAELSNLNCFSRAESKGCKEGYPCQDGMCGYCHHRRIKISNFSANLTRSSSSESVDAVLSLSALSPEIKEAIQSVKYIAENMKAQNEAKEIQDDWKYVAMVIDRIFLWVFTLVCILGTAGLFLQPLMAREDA

| Structure (SMILES) | IC50 [1] [µM] | IC50 [2] [µM] | IC50 [3] [µM] | IC50 [4] [µM] |
| --- | --- | --- | --- | --- |
| Cc1cc(C2=CCC[C@@H]3CC[C@H]2N3)on1 (racemic) | > 10 | 0.0091 | > 10 | – |
| CCc1cc(C2=CCC[C@@H]3CC[C@H]2N3)on1 (racemic) | 1.8 | 0.0122 | 4.6 | 4.2 |
| CC(C)c1cc(C2=CCC[C@@H]3CC[C@H]2N3)on1 (racemic) | 2.9 | 2.1 | 15.1 | 5.5 |
| C1=C(c2cc(-c3ccccc3)no2)[C@H]2CC[C@@H](CC1)N2 (racemic) | 1.05 | > 10 | > 10 | 7.8 |
| CCOC(=O)c1cc(C2=CCC[C@@H]3CC[C@H]2N3)on1 (racemic) | > 10 | > 10 | > 10 | > 10 |
| Cc1cc([C@@]2(O)CCC[C@@H]3CC[C@H]2N3)on1 (racemic) | > 10 | > 10 | > 10 | > 10 |
| Cc1cc([C@]2(O)CCC[C@@H]3CC[C@H]2N3)on1 (racemic) | > 10 | > 10 | > 10 | > 10 |
| Cc1noc2c1[C@H]1CC[C@@H](CC2)N1 (racemic) | > 10 | > 10 | > 10 | > 10 |
| CCOC(=O)c1noc2c1[C@H]1CC[C@@H](CC2)N1 (racemic) | > 10 | > 10 | > 10 | > 10 |
| CN1CCC[C@H]1c1cccnc1 [NICOTINE] | – | 0.0047 | – | – |

— ChEMBL document CHEMBL1821660, “Synthesis and biological activity of a novel class nicotinic acetylcholine receptors (nAChRs) ligands structurally related to anatoxin-a” (Bioorg Med Chem Lett, 2011)
